Laboratory results as given in US20180235213A1, “PLANT HORMONE APPLICATION” (The State of Israel Ministry of Agriculture & Rural …, priority 2015, published 2018).

Tests used:
Picual olives = assay: Application of strigolactone analogs by irrigation to olive seedlings; type: in vivo, Olea europaea L.; conditions: for number of growing buds / lateral branches: irrigation to roots twice a week for 6 weeks, 0.03 and 0.3 μM, vs control
Method: The effect of application of various analogues of strigolactone (SL) on olives, given to roots by irrigation was examined. Three different SL analogs; […] The seedlings were rooted from cuttings and hardened, and were about 6 months old at the time of the experiment. Growth soil mixture was used as in the nursery. Each strigolactone analog was dissolved in acetone to give a 5.6 mM solution. This solution was then further diluted with distilled water to 0.03 and 0.3 μM. The diluted solution was injected to the roots twice a week for 6 weeks, and subsequently all the growing buds were counted. For each treatment (treated and control groups) 10 plants were measured. Experiments were repeated three times.

[1] = system: Orobanche aegyptiaca seeds; assay: Orobanche Germination Assay (biological activity after stress treatments); type: in vivo
Method: The implementation of the strigolactone analogs necessitates a degree of material stability, to ensure their activity on the plant under various growth conditions. Accordingly, the stability of the strigolactone analog GR24 was tested under different environmental conditions. GR24 in acetone stock solution of 5.6 mM was diluted in double distilled water (DDW) or HPC pre-made gel to a concentration of 0.56 μM in eppendorf tubes and was subjected to the following treatments:
GR24 solutions of 0.56 μM, diluted either in DDW or in HPC pre-made gel in eppendorf tubes were incubated in a dry block heater at temperatures of 4° C., 20° C., 40° C., 60° C. digitally set for periods of 3 h, 1 d, 2 d, 4 d, 5 d and 7 d under ambient light.
GR24 solutions of 0.56 μM, diluted either in DDW or in HPC pre-made gel, each in quartz tubes (15 replicates for each treatment) were exposed to UV radiation of λ=312 nm under UV lamp of 600 or 857 μE intensity for periods of 15 min, 30 min or 18 h.
Biological activity was determined by Orobanche Germination Assay: Approximately 30 to 50 seeds of Orobanche aegyptiaca were spread on a glass fiber filter paper disk (9-mm diameter) and put into sterile petri dishes (9-cm diameter) lined with Whatman filter paper wetted with 3 mL of demineralized water. Petri dishes were sealed with parafilm and incubated at 27° C. for preconditioning. After one week of preconditioning period, the glass fiber filter paper disks with Orobanche seeds were removed from the petri dish and dried for 20 min to remove surplus moisture. The disks were transferred to another petri dish within a filter paper ring (outer diameter of 9 cm; inner diameter of 8 cm) wetted with 0.9 mL of water, which maintained a moist environment during the germination bioassay. Forty microliters of the GR24 test solutions were added to the disks. Untreated GR24 at a 0.56 μM concentration was used as a positive control, water or HPC pre-made gel as negative controls. Germination percent was calculated using the counter cell analysis of the IMAGEJ (http://www.//rsbweb.nih.gov/ij/) software. Germinated seeds were distinguished from non-germinated seeds according to the seedling radicles, which are a few millimeters long and visible under a stereomicroscope (Leica MZFLIII, Leica Microsystems, GmbH).
For each of the GR24 treatments fifteen replicates with 30-40 seeds were tested per treatment with 40 μl of 0.56 μM GR24 test solutions pre-treated as described above. The experiment was repeated three times (n=450 seeds).
Next, GR24 was stabilized with Hydroxypropyl Cellulose (HPC), which is a […] medium. Granular HPC [Sigma-Aldrich Israel Ltd., CAS-No. 9004-64-2] […]

[2] = Mass spectrometry analysis of GR24 test solutions (molecular stability); type: physicochemical
Method: Mass spectrometry (MS) analysis was performed to GR24 test solutions using the Orbitrap XL (Thermo Fisher Scientific). The samples were injected directly using direct spray injection probe, in 50% acetonitrile solution and at […] flow rate. A full scan was acquired to detect the GR24 peaks, at 60,000 resolution, Maximum ion fill time settings were 300 ms for the high resolution full scan in the Orbitrap analyzer. The spectra are sum of 10 sec acquisition. Results observed by Xcalibur© software of Thermo Fisher Scientific Inc. version 2.0.7. were analyzed manually.
Next, GR24 was stabilized with Hydroxypropyl Cellulose (HPC), which is a […] medium. Granular HPC [Sigma-Aldrich Israel Ltd., CAS-No. 9004-64-2] (1 g) was ground to a fine powder using a mortar and pestle, mixed with sterile distilled water to make about 10 mL of gel, and then allowed to stand for 1 day for complete dissolution at room temperature. Stability of GR24 was tested by both biological activity of the strigolactone and by assessing the molecule using LC-MS.

olive seedling = assay: Application to olive seedling stem under greenhouse conditions (parafilm, flexible or rigid tubes); conditions: in vivo
Method: EGO10 either with PVAc, or HPC+glycerin were applied on olive seedling stem by the use of parafilm cover as the apparatus, under greenhouse conditions (FIG. 15). Greenhouse conditions include controlled room temperature of 25° C. In each experiment, 10 plants were used for each treatment. The substances were applied on the stem by a spatula and covered with parafilm.
In attempt to improve the performance of the apparatus, different substances and different cover were used. Four formulations were developed and tested. These formulations are based on polysaccharide-sorbent-humidifier substances while the main difference between them is the viscosity of the final product and the ability to retain and release of the active ingredient (EGO 10). […] The cover consisted of a flexible plastic tube that was cut (FIG. 16A), placed on the seedling stem (FIG. 16B) and wrapped with transparent plaster (FIG. 16C). The plastic tubes were filled with the experimental material (FIG. 16D). Moist cotton was placed on both sides of the tubes to minimize water evaporation (FIG. 16E and FIG. 16F). Bud outgrowth was measured for 30 days.
Rigid plastic tubes were tested in order to determine their efficiency as a delivery device for application of the hormone formulations to plants. At first, eppendorf tubes served as prototype. The tubes ware cut from top to bottom and placed on the stem of seedlings. Each tube was sealed with a small moist cotton at the bottom, filled with 1 ml of the examined material and finally covered with transparent plastic tape (FIGS. 17A-17E). The tubes were filled with (HPC+glycerin), or PVAc and EGO10 In each experiment, 10 plants were used for each treatment. Greenhouse conditions include controlled room temperature of 25° C.
EGO10 (10 μM) or acetone control together with HPC+glycerin or PVAc were applied on the stem of olive cuttings by the use of rigid plastic tubes as described in Example 10 above.
Bud outgrowth of olive cuttings was measured until day 30.

seedling outgrowth with medium plus acetone control (olive seedling) | Molecule | number of growing buds / lateral branches (Picual olives) | concentration at which the effect was most prominent (Picual olives; irrigation twice a week, 0.03 and 0.3 μM tested) [µM] | biological activity (Orobanche germination) after stress ([1]; 0.56 μM, long term exposure (over 5 days) to temperatures above 40° C., acidic pH solutions, UV irradiation) | biological activity in HPC medium ([1]; GR24 in HPC pre-made gel) | structure of the molecule in HPC medium (LC-MS) ([2]; GR24 in HPC, under the examination conditions) | molecular stability (MS) ([2]; long term exposure (over 5 days) to temperatures above 40° C., acidic pH solutions, UV irradiation)
 | CC1=C[C@H](O/C=C2/C(=O)O[C@@H]3c4ccccc4C[C@H]23)OC1=O (relative stereo) [GR24, (3aR*,8bS*,E)-3-(((R*)-4-methyl-5-oxo-2,5-dihydrofuran-2-yloxy)-methylene)-3,3a,4,8b-tetrahydro-2H-indeno[1,2-b]furan-2-one, reference compound] | significant reduction in number of lateral branches | 0.03 | loses biological activity | stabilized GR24 by increasing its biological activity | remained intact | molecularly degrading
 | CC1=CC(O/C=C2/C(=O)c3c(c4cc(-c5scc6c5OCCO6)ccc4n3C)C2C)OC1=O (centres unmarked) [ST362, (2E)-2-[(2,5-dihydro-4-methyl-5-oxofuran-2-yloxy)methylene]-1,2-dihydro-7-(2,3-dihydrothieno[3,4-b][1,4]dioxin-7-yl)-1,4-dimethyl-cyclopenta[b]indole-3-(4H)-one] | similar, albeit less potent effect |  |  |  |  | 
led to inhibition of seedling outgrowth | polyvinyl acetate [PVAc] |  |  |  |  |  | 
